# Source: patent US11149086B2, “KV1.3 binding immunoglobulins” (Ablynx N.V., priority 2014, dated 2021)
# Bridge positions count the residues as written; N and C are the ends. Peptide text beside a SMILES is read from it.
# Tests used:
# CCR7−CD45RA− T cells = assay type: cell-based, human; details: monovalent Nanobodies
# Description: The purified anti-Kv1.3 Nanobodies were characterized in a T Cell-activation assay. Human T Cells were first collected from Buffy Coat blood (from healthy volunteers, Bloodbank Gent) using RosetteSep (StemCell Technologies, #15061) followed by an enrichment on Ficoll-Paque™ PLUS (GE Healthcare #17-1440-03). CCR7−CD45RA− T cells were isolated through negative selection using biotinylated antibodies against CD45RA (BD Bioscience #624008) and CCR7 (BD Bioscence #624009) in addition to the Dynabeads Biotin Binder (Invitrogen #110.47). […]
# Isolated CCR7^−CD45RA^− T Cells were then stimulated on anti-CD3 (eBioscience 16-0037-85; 540 ng/ml) coated 96-well plates at a concentration of 200 000 cells/well in absence or presence of dilution series of anti-Kv1.3 antibodies and ShK positive control (Smartox, #08SHK001). After 72 h, IFN-gamma production was measured with anti-human IFNγ antibody capture in ELISA (BD Bioscence #551221) combined with biotinylated anti-human IFNγ (BD Bioscience, #554550) and streptavidin-HRP (Dakocytomation #P0397) as detection (FIG. 11A-11B).
# In addition, also CD25 expression was measured in flow cytometry, using an anti-CD25 antibody (BD Pharmingen, cat 557138) (FIG. 11C-11D). […]
# [1] = test system: DNFB-induced delayed type hypersensitivity in Wistar rats; assay: DNFB-induced delayed-type hypersensitivity (DTH) rat model, ear swelling; assay type: in vivo
# Description: A delayed-type hypersensitivity (DTH) reaction is an expression of T cell-mediated immunity in response to cutaneous sensitization and challenge with reactive haptens like 2, 4-dinitrofluorobenzene (DNFB), largely mediated by skin-homing effector memory T cells (Azam P et al., J Invest Dermatol 127(6):1419-29, 2007; Matheu M P et al., Immunity 29(4):602-14, 2008). The voltage-gated potassium channel Kv1.3 is expressed in T cells, and is important in maintaining T cell activation (predominantly effector memory T cells).
# For the purpose of in vivo proof-of-concept, the efficacy of anti-Kv1.3 Nanobodies on DNFB-induced delayed type hypersensitivity in Wistar rats was evaluated. The DTH response in the rats was elicited as follows (see FIG. 37): on day 0 (start of the in-life) and day 1, 100 μl of 1% (wt/vol) DNFB prepared in 4:1 acetone/olive oil was applied to the shaved dorsum for sensitization. On day 5, animals were challenged on both sides of the right ear pinnae of the animals with 50 μl of 0.5% (wt/vol) DNFB prepared in 4:1 acetone: olive oil. […] As positive control, animals were treated with dexamethasone (topical, 0.75 mg at 1 hour and 6 hours post-challenge). On day 5 before DNFB challenge, the baseline right ear pinna thickness was measured, and the net ear swelling response was determined 24 hours after challenge with a spring-loaded micrometer.
# The DTH response in the rats was elicited as follows (see FIG. 37): on day 0 (start of the in-life) and day 1, 100 μl of 1% (wt/vol) DNFB prepared in 4:1 acetone/olive oil was applied to the shaved dorsum for sensitization. On day 5, animals were challenged on both sides of the right ear pinnae of the animals with 50 μL of 0.5% (wt/vol) DNFB prepared in 4:1 acetone: olive oil. Animals (n=10 rats/group) received two subcutaneous (s.c.) injections of either vehicle, the benchmark compound ShK or the anti-Kv1.3 Nanobody at 12 hours and/or 1 hour preceding the challenge. As positive control, animals were treated with dexamethasone (topical, 0.75 mg at 1 hour and 6 hours post-challenge). On day 5 before DNFB challenge, the baseline right ear pinna thickness was measured, and the net ear swelling response was determined 24 hours after challenge with a spring-loaded micrometer.
# human PBMCs = assay: IFNγ production by human PBMCs after anti-CD3 with or without anti-CD28 stimulation; assay type: cell-based
# Experimental: The anti-Kv1.3 inhibitory Nanobodies were evaluated for their effect on cytokine secretion by plate-bound anti-CD3/CD28 stimulated PBMCs. ShK was included as reference compound (FIG. 30). This co-stimulation of T-cells with anti-CD3 and anti-CD28 reflects strong immune stimulation as encountered during an acute infection. Single stimulation with anti-CD3 imitates rather the moderate immune stimulation resembling the situation during e.g. an autoimmune disease.
# Briefly, PBMCs were first collected from Buffy Coat blood (from healthy volunteers, Bloodbank Gent) using RosetteSep (StemCell Technologies, #15061) followed by an enrichment on Ficoll-Paque™ PLUS (GE Healthcare #17-1440-03). The purity of the population was afterwards checked with anti-CD3 (eBioscience #12-0037-73); anti-CD8 (BD Bioscience #345775); anti-CD4 (BD Bioscience #345771); anti-CD45RO (BD Bioscience #555493); anti-CD45RA (BD Bioscience #550855) and anti-CD19 (BD Bioscience #555413) fluorescently labeled antibodies in a flow cytometric assay. […] After 72 h, IFN-gamma production was measured with anti-human IFNγ antibody capture in ELISA (BD Bioscence #551221) combined with biotinylated anti-human IFNγ (BD Bioscience, #554550) and streptavidin-HRP (Dakocytomation #P0397) as detection.
# human Kv1.3 = target: T1, human Kv1.3 (Homo sapiens, UniProt P22001); assay: FACS competition with FAM-labeled ShK on HEK293H human Kv1.3 cells; assay type: binding; details: 70 nM ShK-FAM
# T1 construct: cell lines stably expressing the full length human Kv1.3 channel
# Experimental: To evaluate the competition between the toxin ShK and the Nanobodies for binding to Kv1.3, a FACS competition experiment was performed using HEK293H cells overexpressing human Kv1.3 and the parental HEK293H cells as background cell line. As detection reagent, FAM-labeled ShK was used (6-FAM-AEEAc-Stichodactyla helianthus Neurotoxin (ShK) (Bachem, H-6088, 1046522, PRT00000366/01/01)). To setup the assay, first a titration series of the labeled Shk-FAM was performed on the HEK293H Kv1.3 cells in order to determine the EC50 value for binding.
# In brief, a dilution series of ShK or Nanobody were added together with the labeled toxin to 200 000 cells in a 96-well plate. After 90 minutes incubation at 4° C., cells were washed three times before read out was performed on a FACS Canto (Becton Dickinson). First a gate was set on the intact cells as determined from the scatter profile. Next, dead cells were gated out by their fluorescence profile from the TOPRO stain (5 nM, Molecular probes, T3605). […] The percentage of inhibition for Nanobodies blocking the interaction of ShK to human Kv1.3 is depicted in Table B-11.
# T1 sequence (P22001 whole entry): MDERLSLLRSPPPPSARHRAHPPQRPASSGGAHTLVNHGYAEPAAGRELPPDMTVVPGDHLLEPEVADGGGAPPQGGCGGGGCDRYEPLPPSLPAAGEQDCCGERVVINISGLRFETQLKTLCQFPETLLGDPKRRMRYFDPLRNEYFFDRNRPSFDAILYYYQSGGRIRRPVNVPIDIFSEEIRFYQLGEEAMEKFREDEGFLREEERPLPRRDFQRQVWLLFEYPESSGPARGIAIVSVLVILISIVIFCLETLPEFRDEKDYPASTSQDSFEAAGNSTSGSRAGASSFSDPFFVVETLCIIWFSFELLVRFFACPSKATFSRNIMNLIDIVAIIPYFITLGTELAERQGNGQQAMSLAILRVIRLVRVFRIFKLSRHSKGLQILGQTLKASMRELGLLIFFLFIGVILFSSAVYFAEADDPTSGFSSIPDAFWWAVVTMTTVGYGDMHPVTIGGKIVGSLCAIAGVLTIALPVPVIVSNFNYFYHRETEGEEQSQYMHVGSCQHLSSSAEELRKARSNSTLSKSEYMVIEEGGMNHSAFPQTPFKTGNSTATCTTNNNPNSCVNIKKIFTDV
compound,measurement,setting,value
"CC[C@H](C)[C@H](NC(=O)[C@@H](N)[C@@H](C)O)C(=O)N[C@H](C(=O)N[C@@H](CC(N)=O)C(=O)N[C@H](C(=O)N[C@@H](CCCCN)C(=O)N[C@H]1CSSC[C@@H]2NC(=O)[C@H](CCCCN)NC(=O)[C@H](C)NC(=O)CNC(=O)[C@H](C)NC(=O)[C@H](CO)NC(=O)[C@H](CCC(N)=O)NC(=O)CNC(=O)[C@H](Cc3ccccc3)NC(=O)[C@H](CCC(N)=O)NC(=O)[C@H](C)NC(=O)[C@H](CCCCN)NC(=O)[C@@H]3CSSC[C@@H](C(=O)N[C@@H](Cc4ccc(O)cc4)C(=O)N4CCC[C@H]4C(=O)N[C@@H](Cc4c[nH]cn4)C(=O)O)NC(=O)[C@H](CCCCN)NC(=O)[C@H](CSSC[C@H](NC(=O)[C@H](CCC(N)=O)NC(=O)[C@H](CCCCN)NC(=O)[C@@H]4CCCN4C(=O)[C@H](CO)NC(=O)[C@H]([C@@H](C)O)NC1=O)C(=O)N[C@@H](CC(C)C)C(=O)N1CCC[C@H]1C(=O)N1CCC[C@H]1C(=O)N3)NC(=O)[C@H](CCCCN)NC(=O)CNC(=O)[C@H](CC(N)=O)NC(=O)[C@H](CCSC)NC2=O)C(C)C)[C@@H](C)CC [MgTX, margatoxin, reference compound] (H-TIINVKCTSPKQCLPPCKAQFGQSAGAKCMNGKCKCYPH-OH; disulfide 7-29, 13-34, 17-36; N-terminus and C-terminus assumed)",IC50 (in M) CD25 read out,CCR7−CD45RA− T cells; plate bound anti-CD3,no fit
same,IC50,"CCR7−CD45RA− T cells; plate bound anti-CD3, 72 h, read-out: IC50 (in M) IFNγ read out",0.094 nM
C[C@@H]1C[C@H]2[C@@H]3CCC4=CC(=O)C=C[C@]4(C)[C@@]3(F)[C@@H](O)C[C@]2(C)[C@@]1(O)C(=O)CO [dexamethasone],mean increase in ear thickness,"[1]; Example 12, topical 0.75 mg at 1 h and 6 h post-challenge, 24 h after challenge",0.027±0.017 mm
same,mean increase in ear thickness,"[1]; Example 13, topical 0.75 mg at 1 h and 6 h post-challenge",0.018±0.016 mm
CC[C@H](C)[C@@H]1NC(=O)[C@@H](NC(=O)[C@H](CO)NC(=O)[C@@H](N)CCCNC(=N)N)CSSC[C@@H](C(=O)O)NC(=O)[C@H]([C@@H](C)O)NC(=O)CNC(=O)[C@@H]2CSSC[C@@H]3NC(=O)[C@H](CCC(N)=O)NC(=O)[C@H](Cc4ccccc4)NC(=O)[C@H](C)NC(=O)[C@H]([C@@H](C)O)NC(=O)[C@H](CSSC[C@H](NC(=O)[C@H](Cc4ccccc4)NC(=O)[C@H](CO)NC(=O)[C@H](CC(C)C)NC(=O)[C@H](CCCNC(=N)N)NC(=O)[C@H](Cc4ccc(O)cc4)NC(=O)[C@H](CCCCN)NC(=O)[C@H](CCSC)NC(=O)[C@H](CO)NC(=O)[C@H](Cc4c[nH]cn4)NC(=O)[C@H](CCCCN)NC3=O)C(=O)N[C@@H](CCCNC(=N)N)C(=O)N[C@@H](CCCCN)C(=O)N[C@@H]([C@@H](C)O)C(=O)N2)NC(=O)[C@H](CCCNC(=N)N)NC(=O)[C@H](CO)NC(=O)[C@H](CCCCN)NC(=O)[C@@H]2CCCN2C(=O)[C@H]([C@@H](C)CC)NC(=O)[C@H]([C@@H](C)O)NC(=O)[C@H](CC(=O)O)NC1=O [ShK],"IFNγ production, PBMCs co-stimulated with anti-CD3 and anti-CD28","human PBMCs; anti-CD3 and anti-CD28, 72 h",do not inhibit
same,"IFNγ production, PBMCs stimulated with anti-CD3 only","human PBMCs; single anti-CD3 stimulation, 72 h",Inhibition
same,mean increase in ear thickness,"[1]; Example 12, two s.c. injections of 10 μg/kg, 12 h and 1 h pre-challenge",0.213±0.019 mm
same,mean increase in ear thickness,"[1]; Example 13, two s.c. injections of 100 μg/kg",0.136±0.024 mm
same,"blocking of FAM labeled ShK binding to Kv1.3, in words",human Kv1.3,completely blocked
